{"source": "patent US20160045449A1", "about": "“Formulations and Methods for Attenuating Respiratory Depression Induced by Opioid Overdose” (Alpharma Pharmaceuticals LLC, priority 2010, published 2016)", "key": {"[1]": {"conditions": "in comparison to a 15 mg dose of hydrocodone"}, "[2]": {"conditions": "after oral administration; cited from earlier work"}, "[3]": {"conditions": "cited from earlier work"}, "[4]": {"assay": "Example 4: six-way crossover study, naltrexone (12% w/w) on oxycodone-induced euphoria, with pulse oximetry (SpO2)", "assay_type": "in vivo, human", "source_text": "As a safety component of this study, pulse oximetry was monitored routinely to monitor for signs and symptoms of oxycodone-induced respiratory depression."}, "[5]": {"conditions": "cited from earlier work", "remark": "listed apart in the source"}, "[6]": {"conditions": "patients; versus equivalent dose of morphine; cited from earlier work"}}, "note": "Counter-ions that a name gives are not always drawn.", "data": [{"smiles": "COc1ccc2c3c1O[C@H]1[C@@H](O)C=C[C@H]4[C@@H](C2)N(C)CC[C@@]341", "note": "[codeine]", "values": [{"measurement": "equianalgesic calculated dose", "setting": "[1]", "result": 90.0, "unit": "mg"}]}, {"smiles": "C[C@H]1[C@H]2Cc3ccc(O)cc3[C@]1(C)CCN2CC1CC1", "note": "[cyclazocine]", "values": [{"measurement": "duration of action", "setting": "[2]", "result": "~24", "unit": "h"}]}, {"smiles": "COc1ccc2c3c1OC1C(=O)CC[C@H]4[C@@H](C2)N(C)CC[C@]314", "note": "(stereo partly shown) [hydrocodone, 4,5-epoxy-3-methoxy-17-methylmorphinan-6-one]", "values": [{"measurement": "equianalgesic calculated dose", "setting": "[1]", "result": 15.0, "unit": "mg"}]}, {"smiles": "CN1CC[C@]23CCCC[C@H]2[C@H]1Cc1ccc(O)cc13", "note": "[levorphanol]", "values": [{"measurement": "equianalgesic calculated dose", "setting": "[1]", "result": 1.8, "unit": "mg"}]}, {"smiles": "CCC(=O)C(CC(C)N(C)C)(c1ccccc1)c1ccccc1", "note": "(stereo not shown) [methadone]", "values": [{"measurement": "equianalgesic calculated dose", "setting": "[1]", "result": 9.0, "unit": "mg"}]}, {"smiles": "O=C1CC[C@@]2(O)[C@H]3Cc4ccc(O)c5c4[C@@]2(CCN3CC2CC2)[C@H]1O5", "note": "[naltrexone HCl, naltrexone hydrochloride]", "values": [{"measurement": "solubility in water", "setting": "[3]", "result": "about 100 mg/cc"}]}, {"smiles": "O=C1CC[C@@]2(O)[C@H]3Cc4ccc(O)c5c4[C@@]2(CCN3CC2CC2)[C@H]1O5", "note": "[naltrexone]", "values": [{"measurement": "effect on euphoric effects of oxycodone", "setting": "[4]; oral oxycodone 60 mg + naltrexone 7.2 mg (12%)", "result": "abating the euphoric effects of oxycodone 60 mg"}, {"measurement": "effect on respiratory depressant effects of oxycodone (SpO2, pulse oximetry)", "setting": "[4]; oral oxycodone 60 mg + naltrexone 7.2 mg (12%) vs oxycodone 60 mg and placebo, opioid-experienced adult subjects", "result": "attenuated the respiratory depressant effects of oxycodone"}, {"measurement": "duration of action", "setting": "[2]", "result": "~24", "unit": "h"}, {"measurement": "time of absorption following oral administration (rapidly absorbed)", "setting": "[5]", "result": "≤ 1", "unit": "h"}, {"measurement": "oral bioavailability", "setting": "[5]; oral administration", "result": "5-40%"}]}, {"smiles": "COc1ccc2c3c1O[C@H]1C(=O)CC[C@@]4(O)[C@@H](C2)N(C)CC[C@]314", "note": "[oxycodone]", "values": [{"measurement": "equianalgesic calculated dose", "setting": "[1]", "result": 13.5, "unit": "mg"}, {"measurement": "extent and speed of onset of induced respiratory depression", "setting": "[6]", "result": "dose dependent and greater than an equivalent dose of morphine"}]}]}
